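Tested at 5 concentrations; 48 h exposure; 96-well plates; endpoints linearly interpolated, else capped at highest concentration. Definition used: TGI = concentration required for complete inhibition of growth.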
What was measured:
Experiment in all cases: inhibition of tumour cell growth, NCI panel, 48 h
786-0 renal = tested on: 786-0 renal
ACHN renal = tested on: ACHN renal
DLD-1 colon = tested on: DLD-1 colon
HCC-2998 colon = tested on: HCC-2998 colon
KM20L2 colon = tested on: KM20L2 colon
M19-MEL melanoma = tested on: M19-MEL melanoma
MALME-3M melanoma = tested on: MALME-3M melanoma
OVCAR-3 ovarian = tested on: OVCAR-3 ovarian
SF-539 CNS = tested on: SF-539 CNS
UACC-257 melanoma = tested on: UACC-257 melanoma

Measured: TGI

O=C(O)[C@@H](NS(=O)(=O)c1ccc([N+](=O)[O-])cc1)c1ccccc1
> 100 µM: all assays above

CC(C)c1cccc(C(C)C)c1NC(=O)CCC(=O)NN
> 100 µM: all assays above

CCCN1C(=O)CNC(=O)c2[nH]cnc21
> 100 µM: all assays above

From PubChem BioAssay (NCI)
